Active and inactive are the calls of the source. How the calls were made is not given here.
Test system: CCRIS mutagenicity, Ames/micronucleus/aberration tests
Assay: CCRIS mutagenicity studies

In the case of CCC1CO1 (stereo unspecified), the mutagenic call (End Point: IN VITRO CHROMOSOMAL ABERRATIONS, Test System: CHO CELLS, Metabolic Activation: NONE) is reported as “inactive; negative; authors report a positive response at the highest dose but few cells c”, the mutagenic call (End Point: IN VITRO CHROMOSOMAL ABERRATIONS, Test System: HUMAN PERIPHERAL LYMPHOCYTES, Metabolic Activation: NONE, Method: FISH (DUAL COLOR FOR CHROMOSOMES 7, 8, 12 AND X)) is reported as “active; positive (hyperdiploidy of chromosomes 12 and x)” and the mutagenic call (End Point: IN VITRO MICRONUCLEUS, Test System: HUMAN PERIPHERAL LYMPHOCYTES, Metabolic Activation: NONE) is reported as “active; positive”. The mutagenic call (Test System: AMES SALMONELLA TYPHIMURIUM, Strain/Indicator: TA98, Metabolic Activation: HAMSTER, LIVER, S-9, AROCLOR 1254, Method: PREINCUBATION) was “inactive; negative”, the mutagenic call (Test System: AMES SALMONELLA TYPHIMURIUM, Strain/Indicator: TA98, Metabolic Activation: NONE, Method: FLUCTUATION (MICROTITER)) was “inactive; negative” and the mutagenic call (Test System: AMES SALMONELLA TYPHIMURIUM, Strain/Indicator: TA98, Metabolic Activation: NONE, Method: PREINCUBATION) was “inactive; negative”. The mutagenic call (Test System: AMES SALMONELLA TYPHIMURIUM, Strain/Indicator: TA98, Metabolic Activation: NONE, Method: STANDARD PLATE) was “inactive; negative”, the mutagenic call (Test System: AMES SALMONELLA TYPHIMURIUM, Strain/Indicator: TA98, Metabolic Activation: RAT LIVER S-9, AROCLOR 1254, Method: FLUCTUATION (MICROTITER)) was “inactive; negative” and the mutagenic call (Test System: AMES SALMONELLA TYPHIMURIUM, Strain/Indicator: TA98, Metabolic Activation: RAT, LIVER, S-9, AROCLOR 1254, Method: PREINCUBATION) was “inactive; negative”. For the same molecule, the mutagenic call (Test System: AMES SALMONELLA TYPHIMURIUM, Strain/Indicator: TA100, Metabolic Activation: HAMSTER, LIVER, S-9, AROCLOR 1254, Method: PREINCUBATION) was “active; positive”, the mutagenic call (Test System: AMES SALMONELLA TYPHIMURIUM, Strain/Indicator: TA100, Metabolic Activation: NONE, Method: PREINCUBATION) was “active; positive” and the mutagenic call (Test System: AMES SALMONELLA TYPHIMURIUM, Strain/Indicator: TA100, Metabolic Activation: RAT, LIVER, S-9, AROCLOR 1254, Method: PREINCUBATION) was “active; positive”. For the same molecule, the mutagenic call (Test System: AMES SALMONELLA TYPHIMURIUM, Strain/Indicator: TA1535, Metabolic Activation: HAMSTER, LIVER, S-9, AROCLOR 1254, Method: PREINCUBATION) was “active; positive”, the mutagenic call (Test System: AMES SALMONELLA TYPHIMURIUM, Strain/Indicator: TA1535, Metabolic Activation: NONE, Method: PREINCUBATION) was “active; positive” and the mutagenic call (Test System: AMES SALMONELLA TYPHIMURIUM, Strain/Indicator: TA1535, Metabolic Activation: NONE, Method: STANDARD PLATE) was “active; positive”. For the same molecule, the mutagenic call (Test System: AMES SALMONELLA TYPHIMURIUM, Strain/Indicator: TA1535, Metabolic Activation: RAT, LIVER, S-9, AROCLOR 1254, Method: PREINCUBATION) was “active; positive”, the mutagenic call (Test System: AMES SALMONELLA TYPHIMURIUM, Strain/Indicator: TA1537, Metabolic Activation: HAMSTER, LIVER, S-9, AROCLOR 1254, Method: PREINCUBATION) was “inactive; negative” and the mutagenic call (Test System: AMES SALMONELLA TYPHIMURIUM, Strain/Indicator: TA1537, Metabolic Activation: NONE, Method: FLUCTUATION (MICROTITER)) was “inactive; negative”. The mutagenic call (Test System: AMES SALMONELLA TYPHIMURIUM, Strain/Indicator: TA1537, Metabolic Activation: NONE, Method: PREINCUBATION) was “inactive; negative”, the mutagenic call (Test System: AMES SALMONELLA TYPHIMURIUM, Strain/Indicator: TA1537, Metabolic Activation: RAT LIVER S-9, AROCLOR 1254, Method: FLUCTUATION (MICROTITER)) was “inactive; negative” and the mutagenic call (Test System: AMES SALMONELLA TYPHIMURIUM, Strain/Indicator: TA1537, Metabolic Activation: RAT, LIVER, S-9, AROCLOR 1254, Method: PREINCUBATION) was “inactive; negative”. The mutagenic call (Test System: AMES SALMONELLA TYPHIMURIUM, Strain/Indicator: TA7001, Metabolic Activation: NONE, Method: FLUCTUATION (MICROTITER)) was “inactive; negative”, the mutagenic call (Test System: AMES SALMONELLA TYPHIMURIUM, Strain/Indicator: TA7001, Metabolic Activation: RAT LIVER S-9, AROCLOR 1254, Method: FLUCTUATION (MICROTITER)) was “inactive; negative” and the mutagenic call (Test System: AMES SALMONELLA TYPHIMURIUM, Strain/Indicator: TA7002, Metabolic Activation: NONE, Method: FLUCTUATION (MICROTITER)) was “inactive; negative”. For the same molecule, the mutagenic call (Test System: AMES SALMONELLA TYPHIMURIUM, Strain/Indicator: TA7002, Metabolic Activation: RAT LIVER S-9, AROCLOR 1254, Method: FLUCTUATION (MICROTITER)) was “inactive; negative”, the mutagenic call (Test System: AMES SALMONELLA TYPHIMURIUM, Strain/Indicator: TA7003, Metabolic Activation: NONE, Method: FLUCTUATION (MICROTITER)) was “inactive; negative” and the mutagenic call (Test System: AMES SALMONELLA TYPHIMURIUM, Strain/Indicator: TA7003, Metabolic Activation: RAT LIVER S-9, AROCLOR 1254, Method: FLUCTUATION (MICROTITER)) was “inactive; negative”. For the same molecule, the mutagenic call (Test System: AMES SALMONELLA TYPHIMURIUM, Strain/Indicator: TA7004, Metabolic Activation: NONE, Method: FLUCTUATION (MICROTITER)) was “active; positive”, the mutagenic call (Test System: AMES SALMONELLA TYPHIMURIUM, Strain/Indicator: TA7004, Metabolic Activation: RAT LIVER S-9, AROCLOR 1254, Method: FLUCTUATION (MICROTITER)) was “inactive; negative” and the mutagenic call (Test System: AMES SALMONELLA TYPHIMURIUM, Strain/Indicator: TA7005, Metabolic Activation: NONE, Method: FLUCTUATION (MICROTITER)) was “inactive; negative”. For the same molecule, the mutagenic call (Test System: AMES SALMONELLA TYPHIMURIUM, Strain/Indicator: TA7005, Metabolic Activation: RAT LIVER S-9, AROCLOR 1254, Method: FLUCTUATION (MICROTITER)) was “inactive; negative”, the mutagenic call (Test System: AMES SALMONELLA TYPHIMURIUM, Strain/Indicator: TA7006, Metabolic Activation: NONE, Method: FLUCTUATION (MICROTITER)) was “inactive; negative” and the mutagenic call (Test System: AMES SALMONELLA TYPHIMURIUM, Strain/Indicator: TA7006, Metabolic Activation: RAT LIVER S-9, AROCLOR 1254, Method: FLUCTUATION (MICROTITER)) was “inactive; negative”. For the same molecule, the mutagenic call (Test System: E. COLI, Strain/Indicator: WP2 UVRA, Metabolic Activation: HAMSTER, LIVER, S-9, AROCLOR 1254, Method: PREINCUBATION) was “inactive; negative”, the mutagenic call (Test System: E. COLI, Strain/Indicator: WP2 UVRA, Metabolic Activation: HAMSTER, LIVER, S-9, AROCLOR 1254, Method: STANDARD PLATE) was “inactive; negative” and the mutagenic call (Test System: E. COLI, Strain/Indicator: WP2 UVRA, Metabolic Activation: HAMSTER, LIVER, S-9, Method: STANDARD PLATE) was “inactive; negative”. The mutagenic call (Test System: E. COLI, Strain/Indicator: WP2 UVRA, Metabolic Activation: MOUSE, LIVER, S-9, AROCLOR 1254, Method: PREINCUBATION) was “inactive; negative”, the mutagenic call (Test System: E. COLI, Strain/Indicator: WP2 UVRA, Metabolic Activation: MOUSE, LIVER, S-9, AROCLOR 1254, Method: STANDARD PLATE) was “inactive; negative” and the mutagenic call (Test System: E. COLI, Strain/Indicator: WP2 UVRA, Metabolic Activation: MOUSE, LIVER, S-9, Method: PREINCUBATION) was “inactive; negative”. The mutagenic call (Test System: E. COLI, Strain/Indicator: WP2 UVRA, Metabolic Activation: MOUSE, LIVER, S-9, Method: STANDARD PLATE) was “inactive; negative”, the mutagenic call (Test System: E. COLI, Strain/Indicator: WP2 UVRA, Metabolic Activation: NONE, Method: PREINCUBATION) was “inactive; negative” and the mutagenic call (Test System: E. COLI, Strain/Indicator: WP2 UVRA, Metabolic Activation: NONE, Method: STANDARD PLATE) was “inactive; negative”. For the same molecule, the mutagenic call (Test System: E. COLI, Strain/Indicator: WP2 UVRA, Metabolic Activation: RAT, LIVER, S-9, AROCLOR 1254, Method: PREINCUBATION) was “inactive; negative”, the mutagenic call (Test System: E. COLI, Strain/Indicator: WP2 UVRA, Metabolic Activation: RAT, LIVER, S-9, AROCLOR 1254, Method: STANDARD PLATE) was “inactive; negative” and the mutagenic call (Test System: E. COLI, Strain/Indicator: WP2 UVRA, Metabolic Activation: RAT, LIVER, S-9, Method: PREINCUBATION) was “inactive; negative”. The mutagenic call (Test System: E. COLI, Strain/Indicator: WP2 UVRA, Metabolic Activation: RAT, LIVER, S-9, Method: STANDARD PLATE) was “inactive; negative”.
